Measurements from patent US6737383B1, “Herbicidal oxadiazolidines” (priority 1999, dated 2004).

Assays:
bedstraw = assay: Test B pre/postemergence bedstraw; assay type: in vivo, Galium aparine; conditions: Postemergence, 10 is complete control
How it was run: (§1)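 Response is a visual 0-to-10 score relative to untreated plants, where 0 means no effect and 10 means complete control, taken twelve to sixteen days after application. Treatments went onto soil at planting and onto foliage of 1- to 4-leaf plants, using a surfactant-containing non-phytotoxic solvent.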

blackgrass = assay: Test B pre/postemergence blackgrass; assay type: in vivo, Alopecurus myosuroides
How it was run: as §1

surinam grass = assay: Test B pre/postemergence surinam grass; assay type: in vivo, Brachiaria decumbens
How it was run: as §1

cocklebur = assay: Test B pre/postemergence cocklebur; assay type: in vivo, Xanthium strumarium
How it was run: as §1

corn = assay: Test B pre/postemergence corn; assay type: in vivo, Zea mays
How it was run: as §1

crabgrass = assay: Test B pre/postemergence crabgrass; assay type: in vivo, Digitaria sanguinalis
How it was run: as §1

giant foxtail = assay: Test B pre/postemergence giant foxtail; assay type: in vivo, Setaria faberii
How it was run: as §1

morningglory = assay: Test B pre/postemergence morningglory; assay type: in vivo, Ipomoea hederacea
How it was run: as §1

pigweed = assay: Test B pre/postemergence pigweed; assay type: in vivo, Amaranthus retroflexus
How it was run: as §1

rape = assay: Test B pre/postemergence rape; assay type: in vivo, Brassica napus
How it was run: as §1

sugar beet = assay: Test B pre/postemergence sugar beet; assay type: in vivo, Beta vulgaris
How it was run: as §1

velvetleaf = assay: Test B pre/postemergence velvetleaf; assay type: in vivo, Abutilon theophrasti
How it was run: as §1

wild oat = assay: Test B pre/postemergence wild oat; assay type: in vivo, Avena fatua
How it was run: as §1

rice = assay: Test B flood test rice; assay type: in vivo, Oryza sativa
How it was run: (§2)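 Flood test on plants grown to the 2-leaf stage; treated plants kept in greenhouse twelve to sixteen days, then visually rated against controls on a 0 (no effect) to 10 (complete control) scale.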

smallflower flatsedge = assay: Test B flood test smallflower flatsedge; assay type: in vivo, Cyperus difformis
How it was run: as §2

bamyardgrass = assay: Test B flood test barnyardgrass; assay type: in vivo, Echinochloa crus-galli
How it was run: as §2

[1] = Postemergence, Rate 62 g/ha, scale 0 to 10, 0 is no effect, 10 is complete control
[2] = Postemergence, Rate 125 g/ha, scale of 0 to 10 where 0 is no effect and 10 is complete control
[3] = Postemergence, Rate 250 g/ha, scale of 0 to 10, 0 is no effect, 10 is complete control
[4] = Postemergence, Rate 500 g/ha, scale of 0 to 10 where 0 is no effect and 10 is complete control
[5] = Preemergence, Rate 62 g/ha, scale of 0 to 10 where 0 is no effect and 10 is complete control
[6] = Preemergence, Rate 125 g/ha, scale of 0 to 10 where 0 is no effect and 10 is complete control
[7] = Preemergence, Rate 250 g/ha, scale 0 to 10 (0 no effect, 10 complete control)
[8] = Preemergence, Rate 500 g/ha, scale of 0 to 10 where 0 is no effect and 10 is complete control
[9] = Rate 62 g/ha, flood test species, Pre-emergence, visual evaluation after twelve to sixteen days
[10] = Rate 125 g/ha, under heading Pre-emergence, flood test species, visual evaluation after twelve to sixteen days
[11] = Rate 250 g/ha, Pre-emergence (flood test species), scale 0 to 10, 0 is no effect, 10 is complete control
[12] = Rate 500 g/ha, Pre-emergence section of Table B, 0 to 10 scale (0 no effect, 10 complete control)

CC(C)N(C(=O)n1oc(=O)n(Cc2nnc(Cl)s2)c1=O)c1ccc(F)cc1F [Compound 645]
1: Giant foxtail plant response rating (giant foxtail; [5]) | Morningglory plant response rating (morningglory; [3])
7: Plant response rating, Cocklebur (cocklebur; [4]) | Plant response rating, Giant foxtail (giant foxtail; [8])
4: Plant response rating, Crabgrass (crabgrass; [7]) | Plant response rating, Redroot pigweed (pigweed; [8])
2: Crabgrass plant response rating (crabgrass; [5]) | Plant response rating, Giant foxtail (giant foxtail; [4]) | Giant foxtail plant response rating (giant foxtail; [6]) | Redroot pigweed plant response rating (pigweed; [2])
5: Plant response rating, Crabgrass (crabgrass; [8]) | Plant response rating, Giant foxtail (giant foxtail; [7])
0: Plant response rating, Bedstraw (bedstraw; Rate 62 g/ha, scale 0 to 10, 0 is no effect) | Bedstraw plant response rating (bedstraw; Rate 250 g/ha, scale of 0 to 10, 0 is no effect) | Plant response rating, Blackgrass (blackgrass; [1]) | Blackgrass plant response rating (blackgrass; [2]) | Blackgrass plant response rating (blackgrass; [3]) | Plant response rating, Blackgrass (blackgrass; [4]) | Blackgrass plant response rating (blackgrass; [5]) | Blackgrass plant response rating (blackgrass; [6]) | Plant response rating, Blackgrass (blackgrass; [7]) | Plant response rating, Blackgrass (blackgrass; [8]) | Plant response rating, B. signalgrass (surinam grass; [1]) | Plant response rating, B. signalgrass (surinam grass; [2]) | B. signalgrass plant response rating (surinam grass; [3]) | Plant response rating, B. signalgrass (surinam grass; [4]) | B. signalgrass plant response rating (surinam grass; [5]) | B. signalgrass plant response rating (surinam grass; [6]) | Plant response rating, B. signalgrass (surinam grass; [7]) | Plant response rating, B. signalgrass (surinam grass; [8]) | Plant response rating, Cocklebur (cocklebur; [1]) | Cocklebur plant response rating (cocklebur; [2]) | Cocklebur plant response rating (cocklebur; [5]) | Cocklebur plant response rating (cocklebur; [6]) | Plant response rating, Cocklebur (cocklebur; [7]) | Plant response rating, Cocklebur (cocklebur; [8]) | Plant response rating, Corn (corn; [1]) | Corn plant response rating (corn; [2]) | Corn plant response rating (corn; [3]) | Plant response rating, Corn (corn; [4]) | Corn plant response rating (corn; [5]) | Corn plant response rating (corn; [6]) | Plant response rating, Corn (corn; [7]) | Plant response rating, Corn (corn; [8]) | Plant response rating, Crabgrass (crabgrass; [1]) | Crabgrass plant response rating (crabgrass; [2]) | Crabgrass plant response rating (crabgrass; [3]) | Plant response rating, Giant foxtail (giant foxtail; [1]) | Giant foxtail plant response rating (giant foxtail; [2]) | Giant foxtail plant response rating (giant foxtail; [3]) | Plant response rating, Morningglory (morningglory; [1]) | Morningglory plant response rating (morningglory; [2]) | Morningglory plant response rating (morningglory; [5]) | Morningglory plant response rating (morningglory; [6]) | Plant response rating, Morningglory (morningglory; [7]) | Plant response rating, Morningglory (morningglory; [8]) | Plant response rating, Redroot pigweed (pigweed; [1]) | Redroot pigweed plant response rating (pigweed; [5]) | Redroot pigweed plant response rating (pigweed; [6]) | Plant response rating, Redroot pigweed (pigweed; [7]) | Plant response rating, Rape (rape; [1]) | Rape plant response rating (rape; [2]) | Plant response rating, Rape (rape; [4]) | Rape plant response rating (rape; [5]) | Rape plant response rating (rape; [6]) | Plant response rating, Rape (rape; [7]) | Plant response rating, Rape (rape; [8]) | Plant response rating, Sugarbeets (sugar beet; [1]) | Sugarbeets plant response rating (sugar beet; [2]) | Sugarbeets plant response rating (sugar beet; [5]) | Sugarbeets plant response rating (sugar beet; [6]) | Plant response rating, Sugarbeets (sugar beet; [7]) | Plant response rating, Sugarbeets (sugar beet; [8]) | Plant response rating, Velvetleaf (velvetleaf; [1]) | Velvetleaf plant response rating (velvetleaf; [2]) | Velvetleaf plant response rating (velvetleaf; [5]) | Velvetleaf plant response rating (velvetleaf; [6]) | Plant response rating, Velvetleaf (velvetleaf; [7]) | Plant response rating, Velvetleaf (velvetleaf; [8]) | Plant response rating, Wild oats (wild oat; [1]) | Wild oats plant response rating (wild oat; [2]) | Wild oats plant response rating (wild oat; [5]) | Wild oats plant response rating (wild oat; [6]) | Plant response rating, Wild oats (wild oat; [7]) | Plant response rating, Wild oats (wild oat; [8]) | Plant response rating, Rice (0 to 10 scale, 0 is no effect, 10 is complete control) (rice; [9]) | Rice plant response rating (0 to 10 scale, 0 is no effect, 10 is complete control) (rice; [10]) | Rice plant response rating (rice; [11]) | Rice plant response rating (rice; [12]) | Plant response rating, S. Flatsedge (0 to 10 scale, 0 is no effect, 10 is complete control) (smallflower flatsedge; [9]) | S. Flatsedge plant response rating (0 to 10 scale, 0 is no effect, 10 is complete control) (smallflower flatsedge; [10]) | S. Flatsedge plant response rating (smallflower flatsedge; [11]) | S. Flatsedge plant response rating (smallflower flatsedge; [12]) | Plant response rating, Barnyardgrass (0 to 10 scale, 0 is no effect, 10 is complete control) (bamyardgrass; [9]) | Barnyardgrass plant response rating (0 to 10 scale, 0 is no effect, 10 is complete control) (bamyardgrass; [10]) | Barnyardgrass plant response rating (bamyardgrass; [11]) | Barnyardgrass plant response rating (bamyardgrass; [12])
3: Cocklebur plant response rating (cocklebur; [3]) | Plant response rating, Crabgrass (crabgrass; [4]) | Crabgrass plant response rating (crabgrass; [6]) | Plant response rating, Morningglory (morningglory; [4])
